Data set [1] has as its system E. coli GW2100/pTJgfp (umuC'::gfp). The conditions noted are these: nutrient broth, FIG. 3.
Data set [2] concerns E. coli GW2100/pTJgfp (umuC'-gfp fusion). The note with it: for Mean fluorescence emission: 24 hours incubation.
Data set [3] relates to arg-3 marker in E. coli strain GW2100/pTJgfp. The conditions noted are these: for Mean revertant colony numbers: 37 parallel cultures, 4 day plate incubation.

Like-named read-outs stand apart in the source and are kept apart here.

For the compound `COS(C)(=O)=O` [MMS, methylmethane sulphonate], the “fluorescence level compared with the 0 dose control” value is given as “no significant difference” in data set [1] (MMS 13 μg/ml); “dose-dependent manner” in data set [1] (MMS 325 and 650 μg/ml). Further, the “fluorescence level (cellular toxicity)” value in data set [1] (MMS 1300 μg/ml) is listed as “lower level of fluorescence”. Besides, the “K.S statistic, fluorescence emission, mutagen versus the control” value in data set [2] (MMS 13 μg/ml) was 3.09; in data set [2] (MMS 325 μg/ml), 6.48. Also, the Mean fluorescence emission in data set [2] (MMS 13 μg/ml, 84 parallel cultures) was determined as 13.22; in data set [2] (MMS 325 μg/ml, 84 parallel cultures), 36.5. Further, the “mutagenic activity by shift in mean fluorescent output per culture” value in data set [2] (MMS 325 μg/ml, 84 parallel cultures, FIG. 10) is “pronounced”. Besides, the “K.S statistic, revertant colony numbers, mutagen versus the control” value was 2.711 in data set [3] (MMS 13 μg/ml) and 3.889 in data set [3] (MMS 325 μg/ml). The figures for the “Mean revertant colony numbers” value in data set [3] (MMS 13 μg/ml) and in data set [3] (MMS 325 μg/ml) were 8.84 and 17.95, respectively. Also, the “mutagenicity through change in culture to culture variation in mutant numbers (mean unchanged)” value in data set [3] (MMS 13 μg/ml, FIG. 8) was “mutagenicity is still detectable”. The “response in mean number of revertant colonies per culture sample” value in data set [3] (MMS 325 μg/ml, FIG. 8) is listed as “clearly positive result”.

(Values after patent US6667153B1 (priority 2000, dated 2003).)
